We go through 29 compounds from PubChem BioAssay (NCI).

What all share (assay): NCI anticancer screen, dose series, 48 h
Assay [1] relates to KM12 colon.
Assay [2] has as its system A549 NSCLC.
Assay [3] has as its system 786-0 renal.
Assay [4] relates to COLO 205 colon.
Assay [5] concerns NCI-H226 lung.
Assay [6] has as its system UACC-62 melanoma.
The test system of assay [7] is MDA-N.
Assay [8] concerns DU-145 prostate.
For assay [9], the system named is SF-268 CNS.

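Tested at 5 concentrations; 48 h exposure; 96-well plates; endpoints linearly interpolated, else capped at highest concentration. GI50 is the concentration that inhibits growth by half. At the TGI there is no net growth.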 A value given as a limit tells only on which side of the number the result lay.

On to `CC(=O)Oc1cc(OC(C)=O)c2c(C)cc(=O)oc2c1`, for which the TGI in assay [1], in assay [2], in assay [3], in assay [4], in assay [5] and in [6] was over 100 µM in each case. Moreover, the TGI in [7], in [8] and in assay [9] was over 100 µM throughout.
Regarding `O=C(O)CNC(=O)c1ccc2cc(C(=O)N3CC(CCl)c4ccc([N+](=O)[O-])cc43)[nH]c2c1` (stereo not drawn), the TGI in assay [1], in assay [2], in assay [3], in [4], in assay [5] and in assay [6] was over 100 µM in each case. Further, the TGI in assay [7], in [8] and in assay [9] was over 100 µM throughout.
`O=[N+]([O-])c1ccc(N2N=C(c3ccc4ccccc4c3O)CC2c2ccc(Cl)cc2)c([N+](=O)[O-])c1` (stereo not drawn): the TGI in [1], in [2], in [3], in assay [4], in assay [5] and in [6] was over 100 µM throughout. Moreover, the TGI was 30.8 µM in assay [7], over 100 µM in assay [8] and over 100 µM in [9].
Turning to `COc1ccc(N=C2C(=Nc3ccc(OC)cc3)N(c3ccc(N(C)C)cc3)C(=S)N2c2ccc(OC)cc2)cc1`, the TGI in assay [1], in [2], in [3], in assay [4], in assay [5] and in assay [6] was over 100 µM in each case. For the same compound, the TGI in assay [7], in [8] and in [9] was over 100 µM in each case.
`CC(=O)OCCCCn1cc(Cn2ccc(=O)n(Cc3cn(CCCCOC(C)=O)nn3)c2=O)nn1`: the TGI in assay [1], in assay [2], in assay [3], in assay [4], in assay [5] and in [6] was over 100 µM in each case. In addition, the TGI in assay [7], in assay [8] and in assay [9] was over 100 µM each time.
As for `Cc1cc(N2CCCC2)c([N+](=O)[O-])cc1[N+](=O)[O-]`, the TGI in [1], in assay [2], in [3], in assay [4], in assay [5] and in assay [6] was over 100 µM in each case. The TGI in assay [7], in assay [8] and in assay [9] was over 100 µM throughout.
In the case of `Nc1nc(=O)n(C2OC(CO)C(O)C2O)c2ncc(-c3ccc(-c4ccccc4)cc3)nc12` (stereo not drawn), the TGI was over 100 µM in assay [1]; over 100 µM in [2]; over 100 µM in assay [3]; over 100 µM in assay [4]; 76.3 µM in [5]; over 100 µM in [6]. The TGI in assay [7], in [8] and in assay [9] was over 100 µM in each case.
Consider `COC(=O)C1=CON2C3CC4CC(C3)CC(C4)C12C` (stereo not drawn), for which the TGI in assay [1], in [2], in [3], in assay [4], in assay [5] and in [6] was over 100 µM throughout. For the same compound, the TGI in assay [7], in assay [8] and in assay [9] was over 100 µM throughout.
As to `CNC(=S)NNc1ncnc2c1ncn2-c1ccc(C)cc1`, the TGI in assay [1], in assay [2], in [3], in [4], in assay [5] and in assay [6] was over 100 µM in each case. The TGI in [7], in assay [8] and in [9] was over 100 µM in each case.
`COc1ccc([C@]23CCN4COC[C@@H]([C@H]42)C2(CC3)OCC(C)(C)CO2)cc1OC`: the TGI in [1], in assay [2], in assay [3], in assay [4], in assay [5] and in [6] was over 100 µM each time. Also, the TGI in [7], in assay [8] and in assay [9] was over 100 µM in each case.
Take `CCC(=O)/C(=C\I)c1ccccc1`: the TGI in assay [1] came to 19.9 µM; in assay [2], 37 µM; in assay [3], 3.33 µM; in assay [4] it was 3.59 µM; in assay [5] it was 56.7 µM; in assay [6], 9.77 µM. The TGI was found to be 11.2 µM in assay [7], 18.4 µM in assay [8] and 40.3 µM in assay [9].
Take `Cc1ccc(S(=O)(=O)n2ccc(-c3ccc4ccn(S(=O)(=O)c5ccc(C)cc5)c4c3)c2)cc1`: the TGI in assay [1], in [2], in [3], in assay [4], in assay [5] and in [6] was over 100 µM in each case. The TGI in assay [7], in assay [8] and in [9] was over 100 µM throughout.
With `O=[N+]([O-])c1ccc(O)c(/C=N/c2nc(-c3ccccc3)cs2)c1`, the TGI in assay [1] was over 100 µM; in assay [2], over 100 µM; in assay [3], over 100 µM; in [4], 56.7 µM; in assay [5], 85.3 µM; in [6], 30.8 µM. For the same compound, the TGI in assay [7] was over 83.6 µM; in assay [8], over 87.1 µM; in assay [9] it was 78 µM.
Consider `COc1ccc(C2SCC(=O)N2NC(=O)C(C)Oc2ccccc2C)cc1` (stereo not drawn), for which the TGI in assay [1], in assay [2], in [3], in [4], in [5] and in [6] was over 100 µM in each case. For the same compound, the TGI in assay [7], in assay [8] and in assay [9] was over 100 µM each time.
Consider `CCCN(CCC)C1CCc2c(ccc3cc[nH]c23)C1` (stereo not drawn), for which the TGI in [1], in assay [2], in assay [3], in assay [4], in [5] and in assay [6] was over 100 µM throughout. For the same compound, the TGI in [7], in assay [8] and in assay [9] was over 100 µM each time.
For `CC(=O)OC(C)c1cc2c(s1)C(=O)c1c(C(C)OC(C)=O)csc1C2=O` (stereo not drawn), the TGI in assay [1] worked out at 3.41 µM; in assay [2], 4.52 µM; in assay [3] it was 4.93 µM; in assay [4], 3.5 µM; in assay [5] it was 3.62 µM; in assay [6], 2.51 µM. In addition, the values for the TGI in assay [7], in assay [8] and in [9] were 0.382 µM, 1.86 µM and 13.2 µM, respectively. Also, the GI50 in [6] is 1.09 µM; in assay [7], 0.214 µM.
As to `COC(=O)c1cccc(OC)c1C#Cc1c(OC)cccc1OC`, the TGI in assay [1], in [2], in [3], in assay [4], in assay [5] and in [6] was over 100 µM in each case. Also, the TGI in assay [7], in assay [8] and in assay [9] was over 100 µM each time.
On to `N=c1oc2ccccc2cc1-c1nc2ccccc2c(=O)[nH]1`, for which the TGI in assay [1], in assay [2], in assay [3], in assay [4], in [5] and in assay [6] was over 100 µM in each case. Also, the TGI in assay [7], in assay [8] and in assay [9] was over 100 µM in each case.
In the case of `COC1(c2cccs2)c2ccccc2C(OC)(c2cccs2)c2ccccc21` (stereo not drawn), the TGI in assay [1], in assay [2], in assay [3], in assay [4], in assay [5] and in assay [6] was over 100 µM throughout. Further, the TGI in assay [7], in [8] and in [9] was over 100 µM in each case.
Consider `COC12C=CC(C=C1C#N)CC2` (stereo not drawn) (tested in a mixture with another compound), for which the TGI in [1], in assay [2], in assay [3], in assay [4], in assay [5] and in [6] was over 100 µM throughout. For the same compound, the TGI in assay [7], in [8] and in assay [9] was over 100 µM throughout.
Turning to `CC(=O)N(C(C)=O)n1c(Cc2ccc(C)cc2)nn(C(C)=O)c1=O`, the TGI in assay [1], in [2], in assay [3], in [4], in [5] and in assay [6] was over 100 µM in each case. Moreover, the TGI in [7], in assay [8] and in assay [9] was over 100 µM in each case.
With `Cc1cc(N(CCC#N)CCC#N)ccc1/C=C1\SC(=S)NC1=O`, the TGI in assay [1], in assay [2], in [3], in [4], in [5] and in assay [6] was over 100 µM throughout. For the same compound, the TGI in assay [7], in [8] and in [9] was over 100 µM throughout.
As for `CN(C)CC1CCC/C(=C\c2ccc(OC(=O)/C=C/c3ccc(Cl)c(Cl)c3)cc2)C1=O` (stereo not drawn), the TGI in [1] stood at 3.61 µM; in [2] it was 24.4 µM; in [3] it was 4.19 µM; in assay [4], 3.93 µM; in [5] it was 4.56 µM; in assay [6], 33.3 µM. In addition, the values for the TGI in [7], in [8] and in assay [9] were 12.1 µM, over 93.3 µM and 36.1 µM, respectively.
As for `O=C1C2=C(SCCS2)C(=O)c2c(Sc3ccc(Cl)cc3)c(Sc3ccc(Cl)cc3)c(Sc3ccc(Cl)cc3)c(Sc3ccc(Cl)cc3)c21`, the TGI is over 100 µM in assay [1]; over 100 µM in assay [2]; over 100 µM in assay [3]; over 100 µM in assay [4]; over 100 µM in assay [5]; 52.8 µM in assay [6]. For the same compound, the TGI in [7], in assay [8] and in assay [9] was over 100 µM each time.
For the compound `O=C1CS(=O)(=O)C(c2cccc(Oc3ccccc3)c2)N1c1ccccc1` (stereo not drawn), the TGI was over 100 µM in assay [1]; over 100 µM in [2]; 37.8 µM in [3]; 37.2 µM in [4]; 45.6 µM in assay [5]; 27 µM in [6]. Besides, the results for the TGI in assay [7], in assay [8] and in assay [9] were 44.2 µM, over 100 µM and 75.8 µM, respectively.
On to `CCOC(=O)C(=O)CC(=O)C1=C(c2ccccc2OC)CC(c2cccs2)=CC1=O`, for which the TGI in assay [1], in assay [2], in assay [3], in assay [4], in [5] and in [6] was over 100 µM throughout. For the same compound, the TGI in [7], in [8] and in [9] was over 100 µM in each case.
As to `O=C1/C(=C/c2ccccc2)NC(=S)N1CN1CCCCC1`, the TGI in assay [1], in assay [2], in assay [3], in assay [4], in assay [5] and in assay [6] was over 100 µM in each case. Besides, the TGI in assay [7], in assay [8] and in [9] was over 100 µM each time.
As for `O=C(c1ccc(O)c([N+](=O)[O-])c1)c1ccc(O)c([N+](=O)[O-])c1`, the TGI in assay [1], in assay [2], in assay [3], in assay [4], in assay [5] and in [6] was over 100 µM each time. The TGI in [7], in assay [8] and in assay [9] was over 100 µM in each case.
Turning to `Cc1cc(O)cc(O)c1C(=O)O[C@]1(C)C(=O)C=C2C=C(/C=C/C(=O)O)OC=C2C1=O`, the TGI in assay [1], in assay [2], in [3], in assay [4], in [5] and in assay [6] was over 100 µM in each case. The TGI in assay [7], in assay [8] and in assay [9] was over 100 µM throughout.
